Where “and” joins values, the source holds several entries; their conditions need not be identical. Identical values can stand only once. Inconclusive results and toxic doses are left out. Peptide text beside a SMILES is read from it. * marks the point of attachment. Cbz = O=C(OCc1ccccc1)*

The assay has as its system BDF1 mice, B16 melanoma ip, median survival T/C. In words: NCI In Vivo Anticancer Drug Screen. Data for tumor model B16 Melanoma (intraperitoneal) in B6D2F1 (BDF1) mice. The following applies: endpoint: median survival time, higher = longer survival. The method, boiled down:
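Each result divides a survival or tumor-size measurement in the compound-treated group by the same measurement in the vehicle group.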

Setting [1] is: dose: 6.25 mg/kg/injection, schedule: Q01DX009 (ip), vehicle: saline.
Where [2] appears, read: dose: 50.0 mg/kg/injection, schedule: Q01DX009 (ip), vehicle: Klucel (hydroxypropylcellulose) (HPC).
Where [3] appears, read: dose: 100.0 mg/kg/injection, schedule: Q01DX009 (ip), vehicle: Klucel (hydroxypropylcellulose) (HPC).
Setting [4] is: dose: 200.0 mg/kg/injection, schedule: Q01DX009 (ip), vehicle: Klucel (hydroxypropylcellulose) (HPC).
Setting [5] is: dose: 12.5 mg/kg/injection, schedule: Q01DX009 (ip), vehicle: Klucel (hydroxypropylcellulose) (HPC).
Setting [6] is: dose: 25.0 mg/kg/injection, schedule: Q01DX009 (ip), vehicle: Klucel (hydroxypropylcellulose) (HPC).
The mark [7] stands for this setting: dose: 50.0 mg/kg/injection, schedule: Q01DX009 (ip), vehicle: saline.
Setting [8] is: dose: 400.0 mg/kg/injection, schedule: Q04DX003 (ip), vehicle: Klucel (hydroxypropylcellulose) (HPC).
[9] abbreviates: dose: 2.5 mg/kg/injection, schedule: Q01DX009 (ip), vehicle: saline with Tween-80.
Setting [10] is: dose: 5.0 mg/kg/injection, schedule: Q01DX009 (ip), vehicle: saline with Tween-80.
[11] abbreviates: dose: 100.0 mg/kg/injection, schedule: Q04DX003 (ip), vehicle: Klucel (hydroxypropylcellulose) (HPC).
Where [12] appears, read: dose: 200.0 mg/kg/injection, schedule: Q04DX003 (ip), vehicle: Klucel (hydroxypropylcellulose) (HPC).
[13] abbreviates: dose: 0.38 mg/kg/injection, schedule: Q01DX009 (ip), vehicle: Klucel (hydroxypropylcellulose) (HPC).
[14] abbreviates: dose: 0.75 mg/kg/injection, schedule: Q01DX009 (ip), vehicle: Klucel (hydroxypropylcellulose) (HPC).
Setting [15] is: dose: 1.5 mg/kg/injection, schedule: Q01DX009 (ip), vehicle: Klucel (hydroxypropylcellulose) (HPC).
Where [16] appears, read: dose: 25.0 mg/kg/injection, schedule: Q01DX009 (ip), vehicle: saline with Tween-80.
[17] abbreviates: dose: 50.0 mg/kg/injection, schedule: Q01DX009 (ip), vehicle: saline with Tween-80.
The mark [18] stands for this setting: dose: 100.0 mg/kg/injection, schedule: Q01DX009 (ip), vehicle: saline with Tween-80.
The mark [19] stands for this setting: dose: 200.0 mg/kg/injection, schedule: Q01DX009 (ip), vehicle: saline with Tween-80.
[20] abbreviates: dose: 12.5 mg/kg/injection, schedule: Q01DX009 (ip), vehicle: saline.
Setting [21] is: dose: 25.0 mg/kg/injection, schedule: Q01DX009 (ip), vehicle: saline.
Setting [22] is: dose: 100.0 mg/kg/injection, schedule: Q01DX009 (ip), vehicle: saline.
[23] abbreviates: dose: 400.0 mg/kg/injection, schedule: Q01DX009 (ip), vehicle: saline with Tween-80.

As for `O=C(O)c1ccc2sc3ccccc3c(=O)c2c1`, the T/C reads like this: (dose: 75.0 mg/kg/injection, schedule: Q01DX009 (ip), vehicle: Klucel (hydroxypropylcellulose) (HPC)) 100 % of control; (dose: 150.0 mg/kg/injection, schedule: Q01DX009 (ip), vehicle: Klucel (hydroxypropylcellulose) (HPC)) 96 % of control; (dose: 300.0 mg/kg/injection, schedule: Q01DX009 (ip), vehicle: Klucel (hydroxypropylcellulose) (HPC)) 96 % of control.

Consider `c1ccc(C2=C([P+](c3ccccc3)(c3ccccc3)c3ccccc3)CCO2)cc1`, for which the T/C is, setting by setting: (dose: 6.0 mg/kg/injection, schedule: Q01DX009 (ip), vehicle: saline) 116 % of control; under setting [1], 105 % of control.

As to `CCCN1CSC(=S)N(CCC)C1`, the T/C reads like this: under setting [2], 89 % of control; under setting [3], 102 % of control; under setting [4], 102 % of control.

For the molecule `CCO/C=C1\SC(=S)N(c2cccc(OC)c2)C1=O`, the T/C by setting is: under setting [5], 93 % of control and 98 % of control; under setting [6], 98 % of control and 107 % of control; (dose: 35.0 mg/kg/injection, schedule: Q01DX009 (ip), vehicle: saline) 98 % of control; under setting [2], 98 % of control; under setting [7], 100 % of control; (dose: 75.0 mg/kg/injection, schedule: Q01DX009 (ip), vehicle: saline) 91 % of control. The T/C is, setting by setting: under setting [3], 100 % of control and 102 % of control; (dose: 265.0 mg/kg/injection, schedule: Q04DX003 (ip), vehicle: Klucel (hydroxypropylcellulose) (HPC)) 101 % of control; under setting [8], 97 % of control.

As to `O=[N+]([O-])c1ccc(C2OC2c2ccccc2)cc1` (stereo unspecified), the T/C runs as follows: (dose: 9.38 mg/kg/injection, schedule: Q01DX009 (ip), vehicle: saline with Tween-80) 100 % of control; under setting [5], 103 % of control; (dose: 18.7 mg/kg/injection, schedule: Q01DX009 (ip), vehicle: saline with Tween-80) 105 % of control; (dose: 37.5 mg/kg/injection, schedule: Q01DX009 (ip), vehicle: saline with Tween-80) 97 % of control; under setting [2], 100 % of control; (dose: 75.0 mg/kg/injection, schedule: Q01DX009 (ip), vehicle: saline with Tween-80) 102 % of control. Also, the T/C (dose: 150.0 mg/kg/injection, schedule: Q01DX009 (ip), vehicle: saline with Tween-80) was 97 % of control.

Take `CC1CC(C)(O)C2C3(C)CCCC2(COC3=O)C12CCC1(CCOC1=O)O2` (stereo unspecified): the T/C runs as follows: under setting [9], 102 % of control; under setting [10], 94 % of control; (dose: 10.0 mg/kg/injection, schedule: Q01DX009 (ip), vehicle: saline with Tween-80) 98 % of control.

With `O=C(/C=C(\C(=O)c1ccccc1)c1ccccc1)c1ccccc1`, the T/C under setting [11] is 100 % of control, the T/C under setting [12] was 100 % of control and the T/C under setting [8] was 103 % of control.

For the molecule `CCCCNC(=O)Nc1cc(C)c(C)cc1C`, the T/C runs as follows: (dose: 50.0 mg/kg/injection, schedule: Q01DX009 (ip), vehicle: gum acacia) 95 % of control; (dose: 100.0 mg/kg/injection, schedule: Q01DX009 (ip), vehicle: gum acacia) 99 % of control; (dose: 200.0 mg/kg/injection, schedule: Q01DX009 (ip), vehicle: gum acacia) 91 % of control.

`CCS/C(SC)=C(/c1ccccc1)[P+](c1ccccc1)(c1ccccc1)c1ccccc1`: the T/C by setting is: (dose: 0.19 mg/kg/injection, schedule: Q01DX009 (ip), vehicle: Klucel (hydroxypropylcellulose) (HPC)) 99 % of control; under setting [13], 99 % of control; under setting [14], 100 % of control; under setting [15], 95 % of control and 106 % of control.

`CSc1cc(=O)n2c3ccccc3c3ccnc1c32`: the T/C is 104 % of control (dose: 0.63 mg/kg/injection, schedule: Q01DX009 (ip), vehicle: saline with Tween-80); 110 % of control (dose: 1.25 mg/kg/injection, schedule: Q01DX009 (ip), vehicle: saline with Tween-80); 101 % of control under setting [9]; 108 % of control under setting [10].

`CC(C)CC(NC(=O)C(Cc1ccccc1)NC(=O)OCc1ccccc1)C(=O)O` (stereo not drawn) (Cbz-Phe-Leu-OH; configuration not given here): the T/C reads like this: under setting [16], 92 % of control; under setting [17], 93 % of control; under setting [18], 90 % of control; under setting [19], 87 % of control.

Take `COc1ccc(NC(=S)NNC(=S)NNc2ccccc2)cc1`: the T/C by setting is: under setting [11], 97 % of control; under setting [12], 93 % of control; under setting [8], 86 % of control.

With `CCN(CC)CCSC(CO)c1ccccc1` (stereo unspecified), the T/C reads like this: under setting [6], 103 % of control; under setting [2], 96 % of control; under setting [3], 93 % of control.

As to `CC(=O)OCCC/C(=C\c1ccc2ccccc2c1)[N+](=O)[O-]`, the T/C runs as follows: under setting [1], 100 % of control; under setting [20], 95 % of control; under setting [21], 91 % of control; under setting [7], 95 % of control; under setting [22], 93 % of control.

For the molecule `CCOC(=O)c1c[nH]c2oc(/C=N/N3CC(CN4CCOCC4)OC3=O)cc2c1=O` (stereo unspecified), the T/C is, setting by setting: under setting [20], 95 % of control; under setting [21], 98 % of control; under setting [7], 97 % of control; under setting [22], 105 % of control.

`CCOC(=O)CCOc1ccc(Cl)cc1`: the T/C under setting [18] is 101 % of control, the T/C under setting [19] was 102 % of control and the T/C under setting [23] is 96 % of control.

On to `CNc1nc(NC)nc(NC)n1`, for which the T/C is 106 % of control under setting [5], 118 % of control under setting [6], 100 % of control under setting [2] and 109 % of control under setting [3].

Turning to `Cc1cnc2c(NC(=O)CCl)nn(C)c2n1`, the T/C by setting is: under setting [2], 103 % of control; under setting [3], 101 % of control.

`CN(C)CCCn1c2c(c3ccccc31)CCCCCC2`: the T/C (dose: 3.12 mg/kg/injection, schedule: Q01DX009 (ip), vehicle: saline) was 119 % of control; the T/C under setting [1] is 100 % of control; the T/C under setting [20] was 100 % of control; the T/C under setting [21] was 113 % of control; the T/C under setting [7] is 94 % of control.

For the molecule `COc1cc(NC(=O)CN(CCCl)CCCl)cc(OC)c1OC`, the T/C was 170 % of control under setting [18] and 161 % of control under setting [23].

`COc1c(Br)c2c(c(OC)c1OC)-c1ccc(OC)c(=O)cc1C(NC(C)=O)CC2` (stereo unspecified): the T/C was 113 % of control under setting [13]; 115 % of control under setting [14]; 112 % of control under setting [15]; 118 % of control (dose: 3.0 mg/kg/injection, schedule: Q01DX009 (ip), vehicle: Klucel (hydroxypropylcellulose) (HPC)).

`[I][Pt+2][I].[NH-]CC[NH-]`: the T/C runs as follows: (dose: 2.75 mg/kg/injection, schedule: Q01DX009 (ip), vehicle: Klucel (hydroxypropylcellulose) (HPC)) 110 % of control; (dose: 5.5 mg/kg/injection, schedule: Q01DX009 (ip), vehicle: Klucel (hydroxypropylcellulose) (HPC)) 109 % of control and 114 % of control; (dose: 11.0 mg/kg/injection, schedule: Q01DX009 (ip), vehicle: Klucel (hydroxypropylcellulose) (HPC)) 109 % of control and 113 % of control; (dose: 22.0 mg/kg/injection, schedule: Q01DX009 (ip), vehicle: Klucel (hydroxypropylcellulose) (HPC)) 120 % of control.

As to `CN(C(=N)N)c1ccc(C(=O)Oc2ccc([N+](=O)[O-])cc2)cc1`, the T/C runs as follows: under setting [2], 104 % of control; under setting [3], 101 % of control; under setting [4], 103 % of control.

As to `Cc1cccc(N2CCN(CCC#N)CC2)c1`, the T/C runs as follows: under setting [16], 102 % of control; under setting [17], 108 % of control.

`CSCCC(C#N)c1ccccc1` (stereo unspecified): the T/C runs as follows: under setting [17], 88 % of control; under setting [18], 88 % of control.

These data come from PubChem BioAssay AID192 (DTP/NCI, 2004).
